# Key:
# Pseudomonas aeruginosa = assay: microbe, parasite or virus in culture; type: cell-based; settings: P. aeruginosa isolates (n per peptide in table)
# [1] = system: carbapenem-resistant bacterial strains; assay: organism not typed; type: cell-based
# Text: (§1) Determination of Minimal Inhibitory Concentrations (MIC).
# Acinetobacter baumannii = assay: microbe, parasite or virus in culture; type: cell-based; settings: for MIC50 / MIC100 / MIC Range: A. baumannii isolates (n per peptide in table); for MIC: Acinetobacter baumannii ATCC BAA 747, CAA supplemented with human serum
# Enterobacter cloacae = assay: microbe, parasite or virus in culture; type: cell-based; settings: for MIC: Enterobacter cloacae ATCC 13047, CAA supplemented with human serum
# Procedure: as §1
# (§2) Additional MIC testing was performed for several peptides against the ESKAPE pathogens Escherichia coli, Enterobacter cloacae, Klebsiella pneumoniae, and Acinetobacter baumannii, in CAA supplemented with human serum (Table D).
# Escherichia coli = assay: microbe, parasite or virus in culture; type: cell-based; settings: for MIC: Escherichia coli ATCC 25922, CAA supplemented with human serum
# Procedure: as §1, §2
# M. smegmatis = assay: 45 hr MIC against M. smegmatis (NTM), Mueller Hinton broth; type: cell-based, Mycobacterium smegmatis; settings: M. smegmatis MC^2 155, Run #1
# [2] = Stability assessment in 100% CAA; type: in vitro ADME; parameters: unit not given beside the values
# Procedure: Stability was assessed after incubation in 100% human serum at 37° C. after 10 minutes, 1 hour, and 2 hours.
# Stability assessment was further conducted in 100% CAA and rabbit serum using the same methodology discussed above.
# S. maltophilia = assay: MIC against S. maltophilia isolates; type: cell-based, Stenotrophomonas maltophilia; settings: S. maltophilia isolates (n per peptide in table)
# Procedure: as §1
# In addition to the results discussed above in Example 3, further testing was conducted on several Chp peptides. MIC values were determined against different species, including P. aeruginosa, K. pneumoniae, A. baumannii, E. cloacae, E. coli, and S. maltophilia, and the results are presented below in Tables 40-45, wherein n=number of isolates tested for each species and MIC is measured as μg/mL.
# [3] = system: carbapenem-resistant P. aeruginosa clinical isolate CFS-1292; assay: MIC by modified CLSI broth microdilution against P. aeruginosa CFS-1292 (CAA, CAA + human serum); type: cell-based, Pseudomonas aeruginosa; settings: for MIC (μg/mL) against CFS-1292 in 100% CAA (1st run/2nd run): 1st run or single value
# Klebsiella pneumoniae = type: cell-based; settings: for MIC50 / MIC100 / MIC Range: K. pneumoniae isolates (n per peptide in table); for MIC: Klebsiella pneumoniae HM-44, CAA supplemented with human serum
# Procedure: as §1, §2
# P. aeruginosa (CFS 1292) = assay: microbe, parasite or virus in culture; type: cell-based, Pseudomonas aeruginosa
# [4] = carbapenem-resistant isolate PA19
# [5] = carbapenem-resistant isolate PA20
# [6] = carbapenem-resistant isolate PA21
# [7] = carbapenem-resistant isolate PA22
# [8] = carbapenem-resistant isolate PA23
# [9] = carbapenem-resistant isolate PA24
# [10] = carbapenem-resistant isolate WLC-452
# [11] = E. cloacae isolates (n per peptide in table)
# [12] = E. coli isolates (n per peptide in table)
Molecule,MIC50 (Pseudomonas aeruginosa) [µg/mL],MIC100 (Pseudomonas aeruginosa) [µg/mL],"MIC [1, 4] [µg/mL]","MIC [1, 5] [µg/mL]","MIC [1, 6] [µg/mL]","MIC [1, 7] [µg/mL]","MIC [1, 8] [µg/mL]","MIC [1, 9] [µg/mL]","MIC [1, 10] [µg/mL]",MIC50 (Acinetobacter baumannii) [µg/mL],MIC100 (Acinetobacter baumannii) [µg/mL],MIC (Acinetobacter baumannii) [µg/mL],MIC (Enterobacter cloacae) [µg/mL],MIC (Escherichia coli) [µg/mL],45 hr MIC (M. smegmatis) [µg/mL],MIC (100% CAA) [2],MIC50 (S. maltophilia) [µg/mL],MIC100 (S. maltophilia) [µg/mL],MIC (μg/mL) against CFS-1292 in 100% CAA (1st run/2nd run) [3] [µg/mL],MIC (Klebsiella pneumoniae) [µg/mL],other results
MARRKKMKGKRDKRVFKQTANKTKAINISPKNMRGGTRL [Unp3],>8,>8,8,>8,>8,>8,>8,>8,>8,>8,>8,2,8,0.5,32,4,>8,>8,8,4,MIC50 (Enterobacter cloacae; [11]): >8 µg/mL; MIC100 (Enterobacter cloacae; [11]): >8 µg/mL; MIC Range (Enterobacter cloacae; [11]): >8 µg/mL; MIC50 (Escherichia coli; [12]): >8 µg/mL; MIC100 (Escherichia coli; [12]): >8 µg/mL; MIC Range (S. maltophilia): >8 µg/mL; MIC50 (Klebsiella pneumoniae): >8 µg/mL; MIC100 (Klebsiella pneumoniae): >8 µg/mL; MIC Range (Klebsiella pneumoniae): >8 µg/mL
MMKYRKKMSAKSSRKQFTKGAMKVKGKNFTKPMRGGIRL [Unp5],>8,>8,8,>8,>8,>8,>8,>8,>8,4,8,8,4,1,8,2,>8,>8,2,4,MIC Range (Acinetobacter baumannii): 1 to 8 µg/mL; MIC Range (S. maltophilia): >8 µg/mL; MIC (μg/mL) against CFS-1292 in CAA + […] human serum [3]: 0.5 µg/mL; MIC50 (Klebsiella pneumoniae): >8 µg/mL; MIC100 (Klebsiella pneumoniae): >8 µg/mL; MIC Range (Klebsiella pneumoniae): >8 µg/mL
MLTVWSDTPTIKRRKDMYRKRMSRKKSKKVFAKTAMKVNKRNHVKPMRGGYRI [Gkh3],8,>8,2,>8,>8,>8,8,8,2,0.5,1,4,4,2,>128,0.5,8,>8,0.5,4,MIC Range (Acinetobacter baumannii): 0.25 to 1 µg/mL; MIC50 (Enterobacter cloacae; [11]): 4 µg/mL; MIC100 (Enterobacter cloacae; [11]): 4 µg/mL; MIC50 (Escherichia coli; [12]): 1 µg/mL; MIC100 (Escherichia coli; [12]): 4 µg/mL; MIC Range (Escherichia coli; [12]): 0.5 to 8 µg/mL; MIC (μg/mL) against CFS-1292 in CAA + […] human serum [3]: 1 µg/mL; MIC50 (Klebsiella pneumoniae): >8 µg/mL; MIC100 (Klebsiella pneumoniae): >8 µg/mL
MAGKKMVSKGKDRQIFRKTADRTKKMNVRPLLYRGGIRL [Chp12],–,–,–,–,–,–,–,–,–,–,–,1,32,8,64,8,–,–,8,16,–
MAKRHKIPQRASQHSFTRHAQKVHPKNVPRLPMRGGIRL [AVQ244],–,–,–,–,–,–,–,–,–,–,–,–,–,–,64,64,–,–,64,–,–
MRRYNVNKGKSAKKFRKQVSKTKVANLRSNPMRGGWRL [Unp6],–,–,–,–,–,–,–,–,–,–,–,–,–,–,16,8,–,–,–,–,–
MKRKPMSRKASQKTFKKNTGVQRMNHLNPRAMRGGIRL [Bdp1],–,–,–,–,–,–,–,–,–,–,–,>32,>32,>32,32,16,–,–,16,>32,MIC (μg/mL) against CFS-1292 in CAA + […] human serum [3]: >32 µg/mL
NC[C@H]1O[C@H](O[C@H]2[C@H](O)[C@@H](O[C@H]3O[C@H](CO)[C@@H](O)[C@H](N)[C@H]3O)[C@H](N)C[C@@H]2N)[C@H](N)C[C@@H]1O [Tobra],–,–,–,–,–,–,–,–,–,–,–,–,–,–,–,–,–,–,–,–,"Passage MIC Passage #1 (Untreated) (P. aeruginosa (CFS 1292); Passage #1, MIC of agent on untreated culture): 0.125 µg/mL; Passage MIC Passage #1 (P. aeruginosa (CFS 1292); Passage #1, colonies from spot dilution, duplicates (1),(2)): 0.5 µg/mL; Passage MIC Passage #2 (Untreated) (P. aeruginosa (CFS 1292); Passage #2, MIC of agent on untreated culture): 0.125 µg/mL; Passage MIC Passage #2 (P. aeruginosa (CFS 1292); Passage #2, colonies from spot dilution, duplicates (1),(2)): 0.5 µg/mL; Passage MIC Passage #3 (Untreated) (P. aeruginosa (CFS 1292); Passage #3, MIC of agent on untreated culture): 0.125 µg/mL; Passage MIC Passage #3 (P. aeruginosa (CFS 1292); Passage #3, colonies from spot dilution, duplicates (1),(2)): 0.5 µg/mL; Passage MIC Passage #4 (Untreated) (P. aeruginosa (CFS 1292); Passage #4, MIC of agent on untreated culture): 0.125 µg/mL; Passage MIC Passage #4 (P. aeruginosa (CFS 1292); Passage #4, colonies from spot dilution, duplicates (1),(2)): 0.5 µg/mL; Passage MIC Passage #5 (Untreated) (P. aeruginosa (CFS 1292); Passage #5, MIC of agent on untreated culture): 0.125 µg/mL; Passage MIC Passage #5 (P. aeruginosa (CFS 1292); Passage #5, colonies from spot dilution, duplicates (1),(2)): 1 µg/mL"
